Results published in patent US20260184707A1, “PHARMACEUTICAL COMPOUNDS FOR THE TREATMENT OF COMPLEMENT MEDIATED DISORDERS” (ALEXION PHARMACEUTICALS, INC., priority 2022, published 2026).

Target: T1, Human complement C1s enzyme (Homo sapiens, UniProt P09871)
T1 construct: purified from human serum, Complement Technology, Inc; purchased Complement Technology, Inc; host or cells: human serum (plasma-derived native protein)
T1 sequence (P09871 438-688 limits assumed): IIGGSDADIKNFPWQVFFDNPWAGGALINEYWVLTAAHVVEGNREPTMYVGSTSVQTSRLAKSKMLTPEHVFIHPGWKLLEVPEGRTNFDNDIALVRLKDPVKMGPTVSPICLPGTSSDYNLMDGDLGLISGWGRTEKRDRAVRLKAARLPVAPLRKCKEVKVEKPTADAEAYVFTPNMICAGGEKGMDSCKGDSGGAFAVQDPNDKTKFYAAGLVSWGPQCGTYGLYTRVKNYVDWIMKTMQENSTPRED
T1 sequence (P09871 16-437 partner limits assumed): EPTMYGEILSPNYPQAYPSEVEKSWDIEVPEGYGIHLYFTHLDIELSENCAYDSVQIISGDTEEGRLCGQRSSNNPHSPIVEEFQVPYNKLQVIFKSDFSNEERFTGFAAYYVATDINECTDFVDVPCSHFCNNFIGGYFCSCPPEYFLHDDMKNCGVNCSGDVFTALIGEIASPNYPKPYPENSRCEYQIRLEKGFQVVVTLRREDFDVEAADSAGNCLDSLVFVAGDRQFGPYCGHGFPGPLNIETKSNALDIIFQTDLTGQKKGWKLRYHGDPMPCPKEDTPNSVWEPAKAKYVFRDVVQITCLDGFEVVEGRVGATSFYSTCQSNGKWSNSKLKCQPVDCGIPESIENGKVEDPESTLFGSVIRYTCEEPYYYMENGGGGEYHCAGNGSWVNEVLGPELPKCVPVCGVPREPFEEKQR
Experiment: Human C1s enzyme assay
Type: biochemical
Conditions: human complement C1s enzyme 1.16 nM, substrate Z-L-Lys-SBzl, A405; read-out: IC50 (Stars)
Summary of the method: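 Serum-purified human C1s (1.16 nM final) preincubated 5 min at room temperature with compound in 50 mM Tris, 1 M NaCl, pH 7.5. Z-L-Lys-SBzl and DTNB added at 100 μM each; A405 recorded every 30 s. IC50 from nonlinear regression of reaction rates versus compound concentration.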

| SMILES | IC50 |
| --- | --- |
| C[C@@H](Nc1cnc(N2CCCC(F)(F)C2)n(CC(=O)NCc2cc3cnccc3[nH]2)c1=O)c1ccc2oc3ccccc3c2c1 [Compound 399, (R)-N-((1H-pyrrolo[3,2-c]pyridin-2-yl)methyl)-2-(5-((1-(dibenzo[b,d]furan-2-yl)ethyl)-amino)-2-(3,3-difluoropiperi-din-1-yl)-6-oxopyrimidin-1(6H)-yl)acetamide] | < 100 nM |
| C[C@@H](Nc1cnc(N2CCCC2=O)n(CC(=O)NCc2cc3cnccc3[nH]2)c1=O)c1ccc2oc3ccccc3c2c1 [Compound 400, (R)-N-((1H-pyrrolo[3,2-c]pyridin-2-yl)methyl)-2-(5-((1-(dibenzo[b,d]furan-2-yl)ethyl)-amino)-6-oxo-2-(2-oxopyr-rolidin-1-yl)pyrimidin-1(6H)-yl)acetamide] | < 100 nM |
| C[C@@H](Nc1cnc(N2CCC(F)(F)C2)n(CC(=O)NCc2cc3cnccc3[nH]2)c1=O)c1ccc2oc3ccccc3c2c1 [Compound 401, (R)-N-((1H-pyrrolo[3,2-c]pyridin-2-yl)methyl)-2-(5-((1-(dibenzo[b,d]furan-2-yl)ethyl)-amino)-2-(3,3-difluoropyrroli-din-1-yl)-6-oxopyrimidin-1(6H)-yl)acetamide] | 100 to 1000 nM |
| C[C@@H](Nc1cnc(N2CCCC(C(F)(F)F)C2)n(CC(=O)NCc2cc3cnccc3[nH]2)c1=O)c1ccc2oc3ccccc3c2c1 (stereo partly drawn) [Compound 402, N-((1H-pyrrolo[3,2-c]pyridin-2-yl)methyl)-2-(5-(((R)-1-(dibenzo[b,d]furan-2-yl)ethyl)-amino)-6-oxo-2-(3-(trifluoro-methyl)piperidin-1-yl)pyrimi-din-1(6H)-yl)acetamide] | 100 to 1000 nM |
| O=C(Cn1c(-c2ccccc2F)ncc(NC2(c3ccc4oc5ccccc5c4c3)CC2)c1=O)NCc1cc2cnccc2[nH]1 [Compound 403, N-((1H-pyrrolo[3,2-c]pyridine-2-yl)methyl)-2-(5-((1-(dibenzo[b,d]furan-2-yl)cyclopropyl)amino)-2-(2-fluorophenyl)-6-oxopyrimidin-1(6H)-yl)acetamide] | < 100 nM |
| Cc1ncc(N[C@H](C)c2ccc3oc4ccccc4c3c2)c(=O)n1C(C)C(=O)NCc1cc2cnccc2[nH]1 (stereo partly drawn) [Compound 404, N-((1H-pyrrolo[3,2-c]pyridin-2-yl)methyl)-2-(5-(((R)-1-(dibenzo[b,d]furan-2-yl)ethyl)-amino)-2-methyl-6-oxopyrimi-din-1(6H)-yl)propanamide] | > 1000 nM |
| O=C(Cn1cncc(NC(=O)c2cnc(-c3ccccc3)o2)c1=O)NCc1cc2cnccc2[nH]1 [Compound 405, N-(1-(2-(((1H-pyrrolo[3,2-c]pyridin-2-yl)methyl)amino)-2-oxoethyl)-6-oxo-1,6-dihydro-pyrimidin-5-yl)-2-phenyl-oxazole-5-carboxamide] | < 100 nM |
| Cc1ncc(NC(=O)c2csc(-c3ccccc3)n2)c(=O)n1CC(=O)NCc1cc2cnccc2[nH]1 [Compound 406, N-(1-(2-(((1H-pyrrolo[3,2-c]pyridine-2-yl)methyl)amino)-2-oxoethyl)-2-methyl-6-oxo-1,6-dihydropyrimidin-5-yl)-2-phenylthiazole-4-carboxamide] | 100 to 1000 nM |
| C[C@@H](Nc1ncc(N2CCOCC2)n(CC(=O)NCc2cc3cnccc3[nH]2)c1=O)c1ccc2oc3ccccc3c2c1 [Compound 407, (R)—N-((1H-pyrrolo[3,2-c]pyridine-2-yl)methyl)-2-(3-((1-(dibenzo[b,d]furan-2-yl)ethyl)amino)-6-morpholino-2-oxopyrazin-1(2H)-yl)acetamide] | < 100 nM |
| O=C(Cn1c(N2CCOCC2)ncc(NC(=O)c2cnc(-c3ccccc3)o2)c1=O)NCc1cc2cnccc2[nH]1 [Compound 408, N-(1-(2-(((1H-pyrrolo[3,2-c]pyridine-2-yl)methyl)amino)-2-oxoethyl)-2-morpholino-6-oxo-1,6-dihydropyrimidin-5-yl)-2-phenyloxazole-5-carboxamide] | < 100 nM |
| O=C(Cn1c(N2CCOCC2)ncc(NC(=O)CCc2ccccc2)c1=O)NCc1cc2cnccc2[nH]1 [Compound 409, N-(1-(2-(((1H-pyrrolo[3,2-c]pyridin-2-yl)methyl)amino)-2-oxoethyl)-2-morpholino-6-oxo-1,6-dihydropyrimidin-5-yl)-3-phenylpropanamide] | < 100 nM |
| O=C(Cn1c(N2CCOCC2)ncc(NC(=O)c2ccc(Oc3ccccc3)cc2)c1=O)NCc1cc2cnccc2[nH]1 [Compound 410, N-(1-(2-(((1H-pyrrolo[3,2-c]pyridin-2-yl)methyl)amino)-2-oxoethyl)-2-morpholino-6-oxo-1,6-dihydropyrimidin-5-yl)-4-phenoxybenzamide] | < 100 nM |
| O=C(Cn1c(N2CCOCC2)ncc(NC(=O)c2csc(-c3ccccc3)n2)c1=O)NCc1cc2cnccc2[nH]1 [Compound 411, N-(1-(2-(((1H-pyrrolo[3,2-c]pyridin-2-yl)methyl)amino)-2-oxoethyl)-2-morpholino-6-oxo-1,6-dihydropyrimidin-5-yl)-2-phenylthiazole-4-carbox-amide] | < 100 nM |
| O=C(Cn1c(N2CCOCC2)ncc(NCCCc2ccccc2)c1=O)NCc1cc2cnccc2[nH]1 [Compound 412, N-((1H-pyrrolo[3,2-c]pyridine-2-yl)methyl)-2-(2-morpholino-6-oxo-5-((3-phenylpropyl)amino)pyrimidin-1(6H)-yl)acetamide] | < 100 nM |
| O=C(Cn1c(N2CCOCC2)ncc(NC(=O)c2coc(-c3ccccc3)n2)c1=O)NCc1cc2cnccc2[nH]1 [Compound 413, N-(1-(2-(((1H-pyrrolo[3,2-c]pyridin-2-yl)methyl)amino)-2-oxoethyl)-2-morpholino-6-oxo-1,6-dihydropyrimidin-5-yl)-2-phenyloxazole-4-carbox-amide] | < 100 nM |
| Cc1ncc(NC(=O)c2coc(-c3ccccc3)n2)c(=O)n1CC(=O)NCc1cc2cnccc2[nH]1 [Compound 414, N-(1-(2-(((1H-pyrrolo[3,2-c]pyridine-2-yl)methyl)amino)-2-oxoethyl)-2-methyl-6-oxo-1,6-dihydropyrimidin-5-yl)-2-phenyloxazole-4-carboxamide] | < 100 nM |
| C[C@@H](Nc1ncc(N2CCCCC2)n(CC(=O)NCc2cc3cnccc3[nH]2)c1=O)c1ccc2oc3ccccc3c2c1 [Compound 415, (R)-N-((1H-pyrrolo[3,2-c]pyridin-2-yl)methyl)-2-(3-((1-(dibenzo[b,d]furan-2-yl)ethyl)-amino)-2-oxo-6-(piperidin-1-yl)pyrazin-1(2H)-yl)acetamide] | < 100 nM |
| C[C@@H](Nc1cnc(N2CCCCC2)n(CC(=O)NCc2cc3cnccc3[nH]2)c1=O)c1ccc(-c2ccccc2F)cc1 [Compound 416, (R)-N-((1H-pyrrolo[3,2-c]pyridin-2-yl)methyl)-2-(5-((1-(2′-fluoro-[1,1′-biphenyl]-4-yl)ethyl)amino)-6-oxo-2-(piperidin-1-yl)pyrimidin-1(6H)-yl)acetamide] | < 100 nM |
| C[C@@H](Nc1ncc(N2CCOCC2)n(CC(=O)NCc2cc3cnccc3[nH]2)c1=O)c1ccc(-c2ccccc2F)cc1 [Compound 417, (R)-N-((1H-pyrrolo[3,2-c]pyridin-2-yl)methyl)-2-(3-((1-(2′-fluoro-[1,1′-biphenyl]-4-yl)ethyl)amino)-6-morpholino-2-oxopyrazin-1(2H)-yl)acet-amide] | < 100 nM |
